Measurements from US20200288710A1, “SUBSTITUTED SULPHONAMIDES FOR CONTROLLING ANIMAL PESTS” (BAYER CROPSCIENCE AKTIENGESELLSCHAFT, priority 2016, published 2020).

How the values were obtained:
Assay type in all cases: in vivo
Myzus persicae [1] = assay: Myzus persicae spray test (Chinese cabbage leaf discs); settings: foliar, 120 h, 500 g/ha, after 5-6 days, read-out: efficacy
Summary of the method: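 Formulated compound in acetone/dimethylformamide, diluted in water with 1000 ppm emulsifier, was sprayed onto Brassica pekinensis leaf discs carrying mixed-stage Myzus persicae. Percent mortality was read 5-6 days later (0% = no aphids killed, 100% = all killed).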

Lucilia cuprina = Lucilia cuprina test; settings: 48 h, L1 larvae, after 2 days, read-out: efficacy (kill in %)
Method: Lucilia cuprina Test Solvent: dimethyl sulphoxide To produce a suitable preparation of active compound, 10 mg of active compound are mixed with 0.5 ml of dimethyl sulphoxide, and the concentrate is diluted with water to the desired concentration. About 20 L1 larvae of the Australian sheep blowfly (Lucilia cuprina) are transferred into a test vessel containing minced horsemeat and the active compound preparation of the desired concentration. After 2 days, the kill in % is determined. 100% means that all the larvae have been killed; 0% means that no larvae have been killed.

Myzus persicae [2] = assay: Myzus persicae oral test; settings: 120 h, 20 ppm, oral uptake, after 5 days, read-out: efficacy
Summary of the method: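 Aphids of mixed ages imbibe, through parafilm, compound solution (acetone stock, water-diluted) combined with sugar-supplemented IPL41 medium to 200 μl. Efficacy read at day 5 as percent killed, 0% meaning no deaths.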

Phaedon cochleariae = Phaedon cochleariae spray test; settings: foliar, 168 h, Chinese cabbage leaf discs, larvae, after 7 days, read-out: efficacy
Method: Phaedon cochleariae—Spray Test
To produce a suitable preparation of active compound, 1 part by weight of active compound is dissolved using the specified parts by weight of solvent and made up with water containing an emulsifier concentration of 1000 ppm until the desired concentration is attained. To produce further test concentrations, the formulation is diluted with emulsifier-containing water.
After 7 days, the efficacy in % is determined. 100% means that all the beetle larvae have been killed; 0% means that no beetle larvae have been killed.

Meloidogyne incognita = Meloidogyne incognita test; settings: 336 h, lettuce, after 14 days, read-out: nematicidal efficacy (formation of galls)
Summary of the method: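 Gall formation on lettuce roots scored after 14 days: 0% means gall count equals untreated control, 100% means none. Sand vessels held the compound (acetone concentrate diluted in water), southern root-knot nematode egg/larvae suspension and lettuce seeds.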

Compound	pest or weed control at 500 g/ha (Myzus persicae [1])	pest or weed control at 100 ppm (Lucilia cuprina)	pest or weed control at 20 ppm (Myzus persicae [2])	pest or weed control at 500 g/ha (Phaedon cochleariae)	pest or weed control at 20 ppm (Meloidogyne incognita)
Cn1cc(C(=O)NS(=O)(=O)c2ccccc2Cl)nc1-c1ncccc1Cl [Example 539]	90%	100%	100%	–	–
Cc1c(S(=O)(=O)NC(=O)c2cn(C)c(-c3c(F)cccc3F)n2)sc2ccc(Cl)cc12 [Example 324]	100%	–	100%	100%	90%
Cc1ccc(C(F)(F)F)cc1S(=O)(=O)NC(=O)c1cn(C)c(-c2c(F)cccc2F)n1 [Example 399]	100%	–	100%	100%	90%
Cc1cc(Cl)ccc1S(=O)(=O)NC(=O)c1cn(C)c(-c2c(F)cccc2F)n1 [Example 445]	100%	–	90%	100%	100%
Cc1ccc(S(=O)(=O)NC(=O)c2cn(C)c(-c3c(F)cccc3F)n2)c(Cl)c1 [Example 450]	100%	–	90%	100%	100%
Cn1cc(C(=O)NS(=O)(=O)c2ccc(F)cc2C(F)(F)F)nc1-c1c(F)cccc1F [Example 448]	100%	–	100%	100%	90%
Cc1cc(C(=O)NS(=O)(=O)c2c(Cl)cccc2Cl)nn1-c1ccccc1Cl [Example 269]	100%	–	100%	83%	100%
Cc1cc(C(=O)NS(=O)(=O)c2cc(Cl)ccc2Br)nn1-c1c(F)cccc1F [Example 294]	100%	–	100%	100%	100%
CCc1cccc(OC(F)F)c1S(=O)(=O)NC(=O)c1cn(C)c(-c2c(F)cccc2F)n1 [Example 339]	90%	–	100%	100%	100%
Cn1cc(C(=O)NS(=O)(=O)c2ccccc2Cl)nc1-c1c(F)cccc1Cl [Example 106]	90%	–	100%	100%	100%
CSc1ccccc1S(=O)(=O)NC(=O)c1cn(C)c(-c2ccccc2Cl)n1 [Example 423]	100%	–	100%	100%	90%
Cn1cc(C(=O)NS(=O)(=O)c2cc(Cl)ccc2Cl)nc1-c1c(F)cccc1F [Example 171]	90%	–	100%	83%	100%
Cn1cc(C(=O)NS(=O)(=O)c2c(Br)cccc2C(F)(F)F)nc1-c1c(F)cccc1F [Example 373]	100%	–	100%	100%	90%
Cc1cccc(C)c1S(=O)(=O)NC(=O)c1cn(C)c(-c2ncccc2F)n1 [Example 602]	90%	–	100%	83%	90%
Cc1c(Cl)cccc1S(=O)(=O)NC(=O)c1cn(C)c(-c2c(F)cccc2F)n1 [Example 316]	90%	–	100%	100%	90%
Cc1cccc(C)c1S(=O)(=O)NC(=O)c1cn(C)c(-c2ncccc2Cl)n1 [Example 587]	90%	–	100%	100%	90%
CCc1ccc(Cl)cc1S(=O)(=O)NC(=O)c1cn(C)c(-c2ncccc2F)n1 [Example 603]	90%	–	100%	100%	90%
Cc1ccc(Br)cc1S(=O)(=O)NC(=O)c1cn(C)c(-c2c(F)cccc2F)n1 [Example 398]	90%	–	100%	100%	90%

Compound	pest or weed control at 500 g/ha (Myzus persicae [1])	pest or weed control at 100 ppm (Lucilia cuprina)	pest or weed control at 20 ppm (Myzus persicae [2])	pest or weed control at 500 g/ha (Phaedon cochleariae)	pest or weed control at 20 ppm (Meloidogyne incognita)
CCc1ccc(Cl)cc1S(=O)(=O)NC(=O)c1cn(C)c(-c2ccccc2Cl)n1 [Example 280]	90%	–	100%	100%	90%
Cc1cccc(S(=O)(=O)NC(=O)c2cn(C)c(-c3c(F)cccc3F)n2)c1 [Example 176]	90%	–	90%	83%	100%
Cc1ccccc1S(=O)(=O)NC(=O)c1cn(C)c(-c2cc(Cl)ccc2Cl)n1 [Example 517]	90%	–	100%	100%	100%
Cc1cc(Br)ccc1S(=O)(=O)NC(=O)c1cn(C)c(-c2ccccc2Cl)n1 [Example 282]	90%	–	100%	100%	100%
COc1ccc(Br)c(S(=O)(=O)NC(=O)c2cn(C)c(-c3ncccc3Cl)n2)c1 [Example 597]	100%	–	100%	100%	90%
CSc1cccc(Cl)c1S(=O)(=O)NC(=O)c1cn(C)c(-c2c(F)cccc2F)n1 [Example 385]	100%	–	100%	100%	90%
Cc1cccc(F)c1S(=O)(=O)NC(=O)c1cn(C)c(-c2c(F)cccc2F)n1 [Example 363]	100%	–	100%	100%	90%
Cc1cccc(Cl)c1S(=O)(=O)NC(=O)c1cn(C)c(-c2ncccc2F)n1 [Example 599]	100%	–	100%	100%	100%
Cc1ccccc1S(=O)(=O)NC(=O)c1cn(C)c(-c2sccc2Cl)n1 [Example 548]	90%	–	90%	83%	90%
Cc1ccc(Cl)c(S(=O)(=O)NC(=O)c2cn(C)c(-c3c(F)cccc3F)n2)c1Cl [Example 434]	100%	–	100%	100%	100%
Cn1cc(C(=O)NS(=O)(=O)c2ccccc2I)nc1-c1ccccc1Cl [Example 428]	100%	–	100%	100%	90%
Cc1cccc(C(F)(F)F)c1S(=O)(=O)NC(=O)c1cn(C)c(-c2cccc(Cl)c2Cl)n1 [Example 561]	90%	–	100%	100%	100%
Cn1cc(C(=O)NS(=O)(=O)c2cc(Cl)cc(Cl)c2)nc1-c1c(F)cccc1F [Example 188]	90%	–	100%	100%	100%
Cc1cc(F)c(F)cc1S(=O)(=O)NC(=O)c1cn(C)c(-c2c(F)cccc2F)n1 [Example 289]	90%	–	100%	100%	90%
CCc1ccc(Cl)cc1S(=O)(=O)NC(=O)c1cn(C)c(-c2c(F)cccc2F)n1 [Example 279]	90%	–	100%	100%	100%
Cn1cc(C(=O)NS(=O)(=O)c2cc(Br)ccc2Br)nc1-c1ccccc1Cl [Example 429]	90%	–	100%	100%	100%
Cn1cc(C(=O)NS(=O)(=O)c2ccc(Cl)cc2I)nc1-c1c(F)cccc1F [Example 439]	90%	–	100%	100%	90%
Cn1cc(C(=O)NS(=O)(=O)c2ccccc2Cl)nc1-c1c(Cl)cccc1Cl [Example 100]	100%	–	100%	100%	90%
